Experimental data published in US20160136109A1, “COMPOSITIONS FOR TISSUE STABILIZATION” (Vatrix Medical, Inc., priority 2008, published 2016).

How the values were obtained:
[1] = collagen crosslinking/stabilization; cited from earlier work
[2] = tested on: porcine aortic wall exposed to type I collagenase; experiment: Tissue resistance to collagenase degradation after treatment; format: biochemical; conditions: type I collagenase 150 U/mL, 24 hours, 37° C.; fresh sample over 85% digested
Description: Tissue resistance to collagenase degradation after treatment with various reagents is discussed. Specifically, samples of porcine aortic wall were either left untreated (fresh) or treated with Glut alone or Glut followed by tannic acid (TA). Glut treatment was performed with 0.6% (w/v) Glut for 1 day, and then 0.2% (w/v) Glut for 7 days at room temperature; Glut/TA treatment was performed with 0.6% (w/v) Glut for 1 day, and then 0.2% (w/v) Glut for 7 days at room temperature followed by 0.15% (w/v) TA for 4 days at 37° C. The treated samples were rinsed 3 times (1 hour each) in 100 mL water, and lyophilized to record dry weight. Samples with the amount of ˜15 to 25 mg dry weight were immersed in 1.2 mL of type I collagenase (150 U/mL) dissolved in 50 mM Tris buffer, 10 mM CaCl2, pH 7.4, and incubated at 37° C. with orbital shaking at 650 rpm for 24 hours. Following this exposure to collagenase, samples were centrifuged (10000 rpm, 10 minutes, 4° C.), individually rinsed three times in 1 mL water, lyophilized to obtain dry weight after collagenase, and the percent of digested tissue was calculated.
The percentage of tissue digestion was compared in graphical format in FIG. 4.

[3] = tested on: porcine carotid arteries exposed to porcine pancreatic elastase; experiment: Tissue resistance to elastase degradation after treatment; format: biochemical; conditions: 0.6% Glut, 0.15% PGG, 20 minutes total treatment (cocktail 20 min or 10 min + 10 min sequential); elastase 3 units/mL 24 hrs 37° C.; compared to saline controls
Description: This example involves model results based on in vitro treatment of tissue samples for period of time that are realistic for in vivo applications. Specifically, tissue resistance to elastase degradation after treatment with various reagents is discussed. Specifically, porcine carotid arteries were treated with saline (control, for 20 minutes), Glut (for 20 minutes), PGG (for 20 minutes), or a combination of the two (Glut+PGG for 20 minutes, or Glut for 10 minutes followed by a separate incubation with PGG for 10 minutes). Concentrations of the reagents used were 0.6% (w/v) for Glut, 0.15% (w/v) for PGG and 9 g/L for physiological saline.
The treated tissue was then exposed to an in vitro elastase digestion assay to subject the treated tissue to digestion for 24 hrs. Briefly, tissue samples were incubated individually with 1 mL of 3 units/mL porcine pancreatic elastase (Elastin Products Company; Owensville, Mo.) dissolved in 100 mM Tris buffer, 1 mM CaCl2, 0.02% NaN3, pH 7.8. Incubation with the elastase was conducted for 24 hrs at 37° C. with orbital shaking at 500 rpm. Because the values shown are percentage of digestion, the lower the value, the better the reagent used performed in resisting elastase degradation. […] It should be noted that the digestion model used in this experiment is a very accelerated and aggressive digestion model.

## COC(=O)C1=CO[C@@H](O)[C@@H]2C(CO)=CC[C@H]12 [genipin, Genipin]
[1]
  toxicity: relatively non-toxic

## O=CCCCC=O [Glut, Glutaraldehyde]
[2]
  percent of digested tissue (mass loss): over 20%
[3]
  percentage digestion by elastase (resistance to degradation): slightly improved the resistance of the tissue to degradation
